Source: the supplement of paper PMC10307832

Assays:
Assay in all cases: relative viability (nuclei count vs DMSO), 5 days (fraction); higher = more cells survive
[1] = compound: C=C(c1ccc(C(=O)O)cc1)c1cc2c(cc1C)C(C)(C)CCC2(C)C [Bexarotene] + O=C(CCCCCCC(=O)Nc1ccccc1)NO [Vorinostat] (partner 1 µM)
Outline: (§1)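 Lung cancer cell lines in 1536-well plates got either a single drug or a fixed anchor-drug dose together with five library-drug doses (not always all listed) in √10 steps, by pin tool, on the day after seeding. Nuclei were counted after 5 days, and relative viability is the treated-to-vehicle ratio of nuclei counts. Values are medians of duplicate plates.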

[2] = compound: C=C(c1ccc(C(=O)O)cc1)c1cc2c(cc1C)C(C)(C)CCC2(C)C [Bexarotene] + C[C@]1(O)C[C@@H](c2nc(-c3ccc4ccc(-c5ccccc5)nc4c3)c3c(N)nccn32)C1 [Linsitinib] (partner 1 µM)
Outline: as §1

[3] = compound: C=C(c1ccc(C(=O)O)cc1)c1cc2c(cc1C)C(C)(C)CCC2(C)C [Bexarotene] + Nc1nc2[nH]cc(CCc3ccc(C(=O)N[C@@H](CCC(=O)O)C(=O)O)cc3)c2c(=O)[nH]1 [Pemetrexed] (partner 0.2 µM)
Outline: as §1

[4] = compound: C=C(c1ccc(C(=O)O)cc1)c1cc2c(cc1C)C(C)(C)CCC2(C)C [Bexarotene] + CC1(C)CCC(c2ccc(Cl)cc2)=C(CN2CCN(c3ccc(C(=O)NS(=O)(=O)c4ccc(N[C@H](CCN5CCOCC5)CSc5ccccc5)c(S(=O)(=O)C(F)(F)F)c4)cc3)CC2)C1 [Navitoclax] (partner 0.5 µM)
Outline: as §1

Cell Line	relative viability ([1]; first compound 0.08 µM)	relative viability ([1]; first compound 0.253 µM)	relative viability ([1]; first compound 0.8 µM)	relative viability ([1]; first compound 2.53 µM)	relative viability ([1]; first compound 8 µM)	relative viability ([2]; first compound 0.08 µM)	relative viability ([2]; first compound 0.253 µM)	relative viability ([2]; first compound 0.8 µM)	relative viability ([2]; first compound 2.53 µM)	relative viability ([2]; first compound 8 µM)	relative viability ([3]; first compound 0.08 µM)	relative viability ([3]; first compound 0.253 µM)	relative viability ([3]; first compound 0.8 µM)	relative viability ([3]; first compound 2.53 µM)	relative viability ([3]; first compound 8 µM)	relative viability ([4]; first compound 0.08 µM)	relative viability ([4]; first compound 0.253 µM)	relative viability ([4]; first compound 0.8 µM)	relative viability ([4]; first compound 2.53 µM)	relative viability ([4]; first compound 8 µM)
LOU-NH91	0.973	0.956	0.933	0.836	0.849	0.912	0.901	0.806	0.79	0.823	0.449	0.43	0.399	0.399	0.386	0.608	0.637	0.502	0.597	0.512
LU99A	0.597	0.539	0.551	0.527	0.612	0.616	0.504	0.477	0.518	0.653	0.19	0.194	0.206	0.189	0.171	0.931	0.828	0.826	0.895	0.89
LXF-289	0.906	0.907	0.861	0.789	0.935	1.06	1.11	1.04	1.11	1.01	1.04	1.12	1.16	0.974	1.04	1.11	1.09	1.08	1.1	0.974
NCI-H23	0.715	0.782	0.599	0.453	0.541	0.737	0.673	0.533	0.638	0.654	0.948	0.715	0.669	0.626	0.686	1.01	0.96	0.853	0.923	0.729
NCI-H322M	0.978	0.983	0.945	0.757	0.934	1.08	0.947	0.846	0.92	0.891	0.698	0.611	0.574	0.626	0.695	1.19	1.33	1.17	1.19	1.26
NCI-H441	0.679	0.805	0.628	0.716	0.547	0.587	0.583	0.578	0.616	0.556	0.268	0.319	0.26	0.257	0.249	0.845	0.747	1.02		0.541
NCI-H460	0.812	0.752	0.644	0.716	0.67	0.94	0.865	0.757	0.66	0.744	0.062	0.0605	0.058	0.0661	0.0586	1.31	1.18	1.05	0.993	0.918
NCI-H520	0.781	0.695	0.778	0.775	0.716	1.02	0.951	0.79	0.976	0.88	0.799	0.663	0.717	0.797	0.708	1.14	1.11	1.03	1.14	0.993
NCI-H596	0.655	0.69	0.414	0.533	0.602	1.12	0.966	0.838	0.981	1.06	0.47	0.482	0.451	0.456	0.736	1.02	0.85	0.707	0.973	0.829
NCI-H647	0.544	0.917	0.826	0.978	0.538	1.29	1.41	1.22	1.26	0.914	0.177	0.155	0.153	0.157	0.174	1.32	1.35	1.2	1.15	1.1
NCI-H838	0.764	0.767	0.742	0.585	0.693	1.13	1.11	1.03	1.17	1.06	0.275	0.254	0.272	0.251	0.249	1.13	1.33	1.23	1.32	1.22
NCI-H1355	0.672	0.724	0.584	0.604	0.619	1.02	0.945	0.801	0.923	0.764	1.14	1.15	0.983	1.13	1.01	1.03	0.998	0.928	1.17	0.84
NCI-H1395	0.963	0.775	0.723	0.49	0.73	1.15	1.08	1.23	1.07	1.11	0.885	0.929	0.808	0.9	0.931	1.19	1.11	1.05	1.07	1.1
NCI-H1437	0.814	1.01	0.886	0.872	0.84	1.01	1.09	0.93	1	0.898	0.352	0.302	0.338	0.296	0.322	1.08	1.15	1.06	1.07	0.953
